From patent US20080167571A1, “DETERMINATION OF TREATMENT RESULTS PRIOR TO TREATMENT OR AFTER FEW TREATMENT EVENTS” (priority 2006, published 2008)

Columns and labels:
[1] = Post-drug EEG and subjective scale measures (LDA neurocognitive drug response score); type: in vivo, healthy adult volunteers; details: post-drug vs non-drug baseline
Text: Using the data and methods described in Example 1, we determined how a combination of post-drug EEG and the subject's subjective scale measures quantifies the response to carbamazepine. Accordingly, a stepwise linear discriminant analysis (LDA) was used to generate a neurocognitive drug response score for each subject, reflecting the magnitude of neurocognitive response to the drug as compared with the non-drug baseline. The sensitivity and specificity in detecting the effect of the drug were both 100%. Three variables were used in the LDA, of which two were EEG and one was a subjective scale measure. The EEG variables were occipito-parietal 2-10 Hz EEG power in all tasks (relative weight 0.6) which increased consequent to CBZ, peak alpha frequency in all tasks (relative weight 0.3) which decreased consequent to CBZ, and self-reported fatigue rating on the Profile of Mood Scale (POMS, Jacobson et al., 1978) (relative weight 0.3) which increased consequent to CBZ.

[2] = Neuropsychological and neurophysiological testing of AEDs, double-blind randomized two period crossover; type: in vivo, healthy adult volunteers
Text: The purpose of the underlying study was to evaluate the neuropsychological and neurophysiological effects of the AED carbamazepine (CBZ), and the AED levitiracetam (LEV) in healthy subjects, employing a double-blind, two period crossover design (Meador et al., 2007). In accordance with the present invention, data at non-drug baseline sessions predicted which subjects would have the most negative effects of CBZ.
A total of 28 healthy adult volunteers without history of neurological or psychiatric diseases completed the protocol (17 women; 11 men; mean age=33 years, range=18-51). All subjects remained free of centrally active prescription medications throughout the study.
The study employed a double-blind, randomized, two period crossover design. Subjects were screened and tested at the non-drug baseline.
Subsequently, they were randomly assigned to receive either AED. Each AED was administered over eight weeks, which included a titration period and a one month maintenance period. Each AED treatment period was followed by a four day taper and a washout period for the remainder of the four weeks. Then, subjects were treated with the other AED for eight weeks followed by a final four week washout period.
CBZ was given at 200 mg/day for the first week, 200 mg/day bid for the 2nd week, then adjusted to midrange anticonvulsant blood levels (ABLs) at tid dosages. LEV was begun at 500 mg/day for two weeks, then increased to 500 mg bid for two weeks, then increased to 1000 mg bid.
Subjects underwent neuropsychological and neurophysiological testing on six occasions (i.e., two AED conditions and four non-drug conditions) over 25 weeks. Test sessions occurred at week one before drug administration, at week nine after four weeks of titration and maintenance on the first drug for four weeks, at week 21 after 4 weeks of wash out, 4 weeks of titration on drug 2 and 4 weeks maintenance on drug 2, and at week 25 after 4 weeks of washout.
Patient data was obtained in accordance with procedures set forth in U.S. Pat. Nos. 6,947,790; 6,434,419 and 5,295,491; in this embodiment EEG data was obtained simultaneously with the subject taking a test battery of attention demanding tasks, for example a set of psychometric tasks.
Data was obtained from a verbal episodic memory task consisting of a word presentation phase, during which subjects had to indicate whether each word contained 1 or 2 syllables, and a delayed recognition phase in which subjects had to indicate whether each word had been presented earlier. A working memory task was presented in between these two phases, and acted as a distracter task. During the first repetition of this sequence, the working memory task was a low-load 1-back task, and during the second repetition, the working memory task was a high-load 2-back task. A number of standard neuropsychological and subjective rating scales were also administered. Test sessions lasted about an hour.

[3] = Symbol Digits Modality Test (SDMT) after taking CBZ; type: in vivo, healthy adult volunteers
Text: The SDMT is a standard neuropsychological test of “executive function” and includes complex scanning, visual tracking, and agility components. These non-drug baseline values of task performance, EEG, and evoked potential variables that were most sensitive to the effects of CBZ were used as candidate independent predictor variables. Stepwise multiple linear regression analysis was used to identify which of these candidate independent predictor variables at baseline best predicted the change in the SDMT after taking CBZ.

[4] = EEG with 1-back working memory task during methylphenidate dose titration in pediatric ADHD; type: in vivo, patients diagnosed with ADHD
Description: Fourteen patients diagnosed with ADHD and clinically classified by a physician specialist in ADHD as MPH-responders (patients who would benefit from taking MPH) completed the protocol (11 males, 3 females; age range 8-18, mean 11.3, standard deviation 3.1). All patients weighed more than 25 kg.
Patients received one week each of placebo (0 mg), 5 mg, 10 mg, 15 mg, and 20 mg daily doses of MPH for a total of five weeks, according to a fully counterbalanced, placebo-controlled, double-blind design. In this example EEG data was obtained concurrent with selected attention demanding tasks. […] Accordingly, an EEG computer-based examination was obtained simultaneously with the subject taking a test battery of attention demanding tasks, for example a set of psychometric tasks. Such data was obtained once a week, 1-3 hours post-ingestion of the prescribed dose for that week. Examinations were administered approximately the same time of day and on the same day of the week during the dose titration period. The protocol used in this study included a low-load simple reaction time task (SRT) task and a higher-load 1-back working memory (WM) task in sessions lasting about half an hour.
Analysis focused on the 1-back working memory task whose performance and EEG signals were most affected by MPH A divergence-based multivariate feature selection and pattern classification algorithm (for convenience called the neuroworkload meter—Gevins and Smith, 2003; Smith, Gevins, et al, 2001) was employed to choose and weight an optimal subset of features to characterize the MPH response.
A set of candidate 1-back WM performance and attention-sensitive EEG features most affected by varying MPH doses was selected based on the prior statistical analyses of the average of the MPH doses followed by visual inspection of the grand averaged EEG power spectra and evoked potential data. Feature subsets were limited to a maximum of four variables because of the small number of subjects in the experiment. […]

[5] = in vivo; cited from earlier work

**Q.** Which results are given for NC(=O)N1c2ccccc2C=Cc2ccccc21 [CBZ, carbamazepine]?
**A.** occipito-parietal 2-10 Hz EEG power in all tasks [1]: increased; peak alpha frequency in all tasks [1]: decreased; self-reported fatigue rating on the Profile of Mood Scale (POMS) [1]: increased; variables worse compared to the non-drug average ([2]; CBZ 36 of 55, LEV 4 of 33): 65%; low frequency (<10 Hz) EEG power ([2]; after one month maintenance): increase; subjects with a decline in SDMT score of at least 15% ([3]; 28 subjects): Six of the 28 subjects; average decline in SDMT ([3]; actual, across the 28 subjects, p<0.0003): 6.7%

**Q.** Which results are given for CC[C@@H](C(N)=O)N1CCCC1=O [LEV, levetiracetam]?
**A.** untoward neuropsychological and neurophysiological effects ([2]; in vivo): fewer untoward neuropsychological and neurophysiological effects than did CBZ; variables with significant differences between the AEDs, all in favor of LEV ([2]; in vivo): 42%; variables worse compared to the non-drug average ([2]; in vivo): 12%

**Q.** Which results are given for COC(=O)C(c1ccccc1)C1CCCCN1 (stereo not drawn) [MPH, methylphenidate]?
**A.** dose-response relationship across patients ([4]; 0, 5, 10, 15, 20 mg daily, one week each): did not reveal any systematic dose-response relationship; effect size (Cohen's d) of four-variable equation score ([4]; 20 mg vs placebo): 2.12; effect size (Cohen's d), dose with the highest score vs placebo ([4]; two-dose test analysis): 3.43

**Q.** Which results are given for CC1(C)O[C@@H]2[C@@H](CO[C@@]3(COS(N)(=O)=O)OC(C)(C)O[C@@H]23)O1 [topiramate]?
**A.** 2-6 Hz EEG power [5]: increased; working memory task performance [5]: adversely affected
